Some results are limits rather than exact numbers.

In experiment [1] the target is T1, [SALL4 ZF2]-[compound]-[CRBN/DDB1] ternary complex (Homo sapiens, UniProt Q96SW2+Q9UJQ4).
T1 construct: SALL4 ZF2
The experiment in a line: AlphaLISA assay for off-target recruitment detection, SALL4 ZF2. Format: binding. The settings on record: 1 μM compound, normalized to Lenalidomide; for activation at 1 µM: read-out: Normalized ternary complex response, SALL4 ZF2. How it is done:
(§1) The ability of the molecular glue compounds of the invention to mediate the proximity of CRBN with its known neo-substrates (shown in Table 3) was assessed using AlphaLISA to detect the formation of a [neo-substrate]-[compound of formula (I)]-[CRBN/DDB1] ternary complex.
(§2) Two types of protein solution were prepared: • neo-substrate, 40 μg/ml AlphaScreen Donor Beads (Table 3) in PBS (10 mM phosphate buffer, 137 mM NaCL, 2.7 mM KCl, pH 7.4) buffer supplemented with Tween-20 (Table 3) and 1 mM DTT, • 200 nM 6×His-CRBN/DDB1, 40 μg/ml AlphaLISA Anti-6×His Acceptor beads in PBS buffer with Tween-20 (Table 3) and 1 mM DTT.
(§3) The prepared solutions were incubated at room temperature for 30 min and then the solution containing the donor beads was mixed with the solution containing the acceptor beads.
(§4) The tested compounds were dispensed onto a white 384-well AlphaPlate 384 SW. DMSO was backfilled to all wells, resulting in a final DMSO content of 2%. Wells containing only DMSO served as background. Next, 10 μl of solution with donor and acceptor beads was added to the wells.
(§5) The plate was sealed with transparent film and shaken using a VibroTurbulator for 60 sec at room temperature, level 3. The plate was then spun down shortly (10 sec, 1000 rcf, room temperature) and incubated at 25° C. for 30 min.
(§6) The read-out was performed with PerkinElmer Enspire Multimode Plate Reader (method for AlphaLISA 384-well low volume, Filterset: λexc=680 nm, λem=615 nm).
(§7) The results were analyzed as follows: • 1) an average of luminescence for background signal was calculated and used as a negative control; • 2) an average of the maximum measured luminescence for reference compound (Table 3) was calculated and used as an internal positive control; • 3) raw luminescence values were normalized against positive and negative controls; • 4) Normalized responses to reference molecular glue were determined.

In experiment [2] the target is T2, [IKZF1 ZF2]-[compound]-[CRBN/DDB1] ternary complex (Homo sapiens, UniProt Q13422+Q96SW2).
T2 construct: IKZF1 ZF2
Put plainly: AlphaLISA assay for off-target recruitment detection, IKZF1 ZF2. Format: binding. The settings on record: 1 μM compound, normalized to Lenalidomide; for activation at 1 µM: read-out: Normalized ternary complex response, IKZF1 ZF2. How it is done:
as §1, §2, §3, §4, §5, §6, §7
Background: In Alpha technology, singlet oxygen from a donor bead excites a nearby acceptor bead.

The target of experiment [3] is T3, [IKZF2 ZF2]-[compound]-[CRBN/DDB1] ternary complex (Homo sapiens, UniProt Q96SW2+Q9UKS7).
T3 construct: IKZF2 ZF2
Put plainly: AlphaLISA assay for off-target recruitment detection, IKZF2 ZF2. Format: binding. As to conditions: 1 μM compound, normalized to Helios modulator; for activation at 1 µM: read-out: Normalized ternary complex response, IKZF2 ZF2. How it is done:
as §1, §2, §3, §4, §5, §6, §7

Experiment [4] deals with [CK1α]-[compound]-[CRBN/DDB1] ternary complex (Homo sapiens, UniProt P48729+Q96SW2). Put plainly: AlphaLISA assay for off-target recruitment detection, CK1α. Format: binding. The settings on record: 1 μM compound, normalized to FPFT-2216; for activation at 1 µM: read-out: Normalized ternary complex response, CK1α. How it is done: as §1, §2, §3, §4, §5, §6, §7
Experiment [5] deals with CRBN/DDB1 protein complex (Homo sapiens, UniProt Q96SW2). The experiment in a line: CRBN displacement TR-FRET assay. As to conditions: Thalidomide-Red tracer, 6×His-CRBN/DDB1; read-out: CRBN binding Ki. How it is done:
CRBN/DDB1 protein complex was mixed with Thalidomide-Red and a compound to be tested (the “test compound”). The test solution contained PPI Europium detection buffer, 1 mM DTT, 6.8 nM Thalidomide-Red (the tracer), 5 nM 6×His-CRBN/DDB1 protein, 0.5 nM Anti-6× His-Eu cryptate, 1% DMSO. The test solution was added to a 384-well assay plate.
The plate was spun-down (1 min, 1000 rpm, 22° C.) and then shaken using a VibroTurbulator for 30 sec at room temperature (20-25° C.), with the frequency set to level 10. The assay plate with protein and the tracer was incubated for 180 min at room temperature (20-25° C.) prior to read-out with a plate reader. The read-out was performed with plate reader (Pherastar, BMG Labtech) in time resolved fluorescence mode. Filter settings: TR 337 665 620.
The CRBN displacement TR-FRET experiment was carried out with various concentrations of the test compounds in order to measure Ki values.
The Ki values of competitive inhibitors were calculated using the equation based on the IC50 values of relationship between compound concentration and measured […], the Kd value of the Thalidomide-Red and CRBN/DDB1 complex, and the concentrations of the protein and the tracer in the displacement assay (as described by Cheng and Prusoff, Biochem Pharmacol 1973; 22:3099-3108).
Background: In TR-FRET formats the signal depends on donor and acceptor labels being close together.

The target in experiment [6] is T4, [GSPT1]-[compound of formula (I)]-[CRBN/DDB1] complex (Homo sapiens, UniProt P15170+Q96SW2). Put plainly: AlphaLISA ternary complex formation assay (GSPT1). Format: binding. As to conditions: 0.5 h; 1 μM compound; normalized to reference compound CC-885; read-out: Normalized AlphaLISA ternary complex average signal at 1 μM molecule. As for the experimental part:
The effect of the molecular glue compounds of the invention on the formation of a ternary complex composed of [GSPT1]-[compound of formula (I)]-[CRBN/DDB1] was investigated with two methods: AlphaLISA dose response assay or HTRF ternary complex assay.
Two types of protein solution were prepared: • 200 nM biotinylated GSPT1 (Table 3), 40 μg/ml AlphaScreen Streptavidin-coated Donor Beads in HBS (10 mM HEPES, 150 mM NaCL, pH 7.4) buffer with 0.1% Tween-20 and 1 mM DTT, • 200 nM 6×His-CRBN/DDB1, 40 μg/ml AlphaLISA Anti-6×His Acceptor beads in HBS buffer with 0.1% Tween-20 and 1 mM DTT.
as §3, §4, §5, §6
The results were analyzed as follows: • 1) an average of luminescence for background signal was calculated and used as a negative control; • 2) average of the maximum measured luminescence for reference compound (structure shown in Table 3 below) was calculated and used as an internal positive control; • 3) raw luminescence values were normalized against positive and negative controls; • 4) Normalized responses to positive control were determined.

The target in experiment [7] is T4, [GSPT1]-[compound of formula (I)]-[CRBN/DDB1] complex. Put plainly: HTRF ternary complex assay (GSPT1). Format: binding. As to conditions: read-out: HTRF ternary complex Average pEC50 by molecule (converted). As for the experimental part: The effect of the molecular glue compounds of the invention on the formation of a ternary complex composed of [GSPT1]-[compound of formula (I)]-[CRBN/DDB1] was investigated.
Mix solution of proteins and reagents was prepared: • 48 nM GSPT1, 52.8 nM 6×His-CRBN/DDB1, 3 nM of Streptavidin-Eu cryptate ([…]) and 6.67 nM of Anti-6×his-d2 ([…]) was prepared in PPI Europium detection buffer (purchased from Cisbio) with 1 mM DTT.
The tested compounds in dose-response were dispensed onto a white 384-well low volume plate (Greiner, 784075). DMSO was backfilled to all wells, resulting in a final DMSO content of 0.5%. Wells containing only DMSO served as background.
The plate was sealed with transparent film and shaken using a VibroTurbulator for 60 sec at level 3.
The plate was then spun down shortly (10 sec, 1000 rcf) and incubated at 25° C. for 180 min.
The read-out was performed with plate reader (Pherastar, BMG Labtech) in time resolved fluorescence mode. Filter settings: TR 337 665 620.
The results were analyzed as follows: • 1) an average of fluorescence for background signal was calculated and used as a negative control; • 2) raw fluorescence values for tested compounds were normalized against negative controls; • 3) saturation curve was fitted to specific binding with Hill slope model; • 4) EC50 and pEC50 values were determined.

T3 sequence (Q9UKS7 140-162 limits assumed): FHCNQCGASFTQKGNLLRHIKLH
T3 sequence (Q96SW2 whole entry): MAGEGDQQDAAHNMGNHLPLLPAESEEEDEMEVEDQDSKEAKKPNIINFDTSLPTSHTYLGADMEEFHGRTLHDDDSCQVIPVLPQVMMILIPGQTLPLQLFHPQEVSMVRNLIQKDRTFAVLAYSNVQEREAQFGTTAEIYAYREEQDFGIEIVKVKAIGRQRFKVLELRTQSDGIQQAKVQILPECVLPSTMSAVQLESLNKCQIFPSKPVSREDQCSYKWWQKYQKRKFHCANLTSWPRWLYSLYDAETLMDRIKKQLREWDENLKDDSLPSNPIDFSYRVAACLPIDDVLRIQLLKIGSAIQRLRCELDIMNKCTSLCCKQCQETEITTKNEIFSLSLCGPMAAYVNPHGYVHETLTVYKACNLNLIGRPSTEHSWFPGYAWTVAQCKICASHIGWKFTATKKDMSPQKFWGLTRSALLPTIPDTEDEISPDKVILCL
T3 sequence (Q16531 whole entry partner): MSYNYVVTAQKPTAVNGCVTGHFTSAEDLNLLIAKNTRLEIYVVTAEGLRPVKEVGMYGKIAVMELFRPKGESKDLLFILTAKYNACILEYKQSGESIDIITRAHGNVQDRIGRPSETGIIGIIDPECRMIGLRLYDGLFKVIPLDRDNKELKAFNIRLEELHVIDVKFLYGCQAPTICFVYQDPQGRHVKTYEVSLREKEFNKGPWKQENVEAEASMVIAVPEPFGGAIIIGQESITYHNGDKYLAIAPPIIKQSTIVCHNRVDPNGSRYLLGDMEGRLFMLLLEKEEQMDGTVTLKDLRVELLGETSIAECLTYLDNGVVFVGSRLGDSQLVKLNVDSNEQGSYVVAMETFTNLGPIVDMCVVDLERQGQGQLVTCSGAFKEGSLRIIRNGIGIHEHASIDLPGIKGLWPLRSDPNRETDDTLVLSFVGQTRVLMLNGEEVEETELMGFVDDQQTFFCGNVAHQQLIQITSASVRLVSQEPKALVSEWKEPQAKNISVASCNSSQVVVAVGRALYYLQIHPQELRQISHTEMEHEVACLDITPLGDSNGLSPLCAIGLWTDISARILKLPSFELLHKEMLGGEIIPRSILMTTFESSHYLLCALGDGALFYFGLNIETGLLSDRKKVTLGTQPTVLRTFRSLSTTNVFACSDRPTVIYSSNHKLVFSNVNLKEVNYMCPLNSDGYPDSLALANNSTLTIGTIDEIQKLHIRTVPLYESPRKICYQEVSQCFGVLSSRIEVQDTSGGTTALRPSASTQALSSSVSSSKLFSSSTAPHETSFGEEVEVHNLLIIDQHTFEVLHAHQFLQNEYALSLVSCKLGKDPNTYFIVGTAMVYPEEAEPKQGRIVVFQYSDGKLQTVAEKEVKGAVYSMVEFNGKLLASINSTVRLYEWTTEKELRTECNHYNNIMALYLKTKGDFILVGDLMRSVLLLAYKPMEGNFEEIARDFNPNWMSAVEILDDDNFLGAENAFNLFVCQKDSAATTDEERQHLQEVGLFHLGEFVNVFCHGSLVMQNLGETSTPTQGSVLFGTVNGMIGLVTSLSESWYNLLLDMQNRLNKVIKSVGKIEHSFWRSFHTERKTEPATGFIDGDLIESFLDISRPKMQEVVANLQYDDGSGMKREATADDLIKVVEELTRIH
T2 sequence (Q13422 145-167 limits assumed): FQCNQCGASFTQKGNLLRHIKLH
T2 sequence (Q96SW2 whole entry): as the sequence (Q96SW2 whole entry) above
T2 sequence (Q16531 whole entry partner): as the sequence (Q16531 whole entry partner) above
Sequence of [CK1α]-[compound]-[CRBN/DDB1] ternary complex (P48729 whole entry): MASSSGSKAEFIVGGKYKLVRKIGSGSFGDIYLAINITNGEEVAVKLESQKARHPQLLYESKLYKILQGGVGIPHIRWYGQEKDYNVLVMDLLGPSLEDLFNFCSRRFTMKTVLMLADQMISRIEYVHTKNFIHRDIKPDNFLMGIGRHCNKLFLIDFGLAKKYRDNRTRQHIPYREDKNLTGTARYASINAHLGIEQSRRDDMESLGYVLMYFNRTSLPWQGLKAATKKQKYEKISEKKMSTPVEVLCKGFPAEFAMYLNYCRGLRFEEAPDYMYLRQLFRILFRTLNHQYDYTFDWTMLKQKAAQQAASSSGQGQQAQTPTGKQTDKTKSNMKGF
Sequence of [CK1α]-[compound]-[CRBN/DDB1] ternary complex (Q96SW2 whole entry): as the sequence (Q96SW2 whole entry) above
Sequence of [CK1α]-[compound]-[CRBN/DDB1] ternary complex (Q16531 whole entry partner): as the sequence (Q16531 whole entry partner) above
T4 sequence (P15170 whole entry): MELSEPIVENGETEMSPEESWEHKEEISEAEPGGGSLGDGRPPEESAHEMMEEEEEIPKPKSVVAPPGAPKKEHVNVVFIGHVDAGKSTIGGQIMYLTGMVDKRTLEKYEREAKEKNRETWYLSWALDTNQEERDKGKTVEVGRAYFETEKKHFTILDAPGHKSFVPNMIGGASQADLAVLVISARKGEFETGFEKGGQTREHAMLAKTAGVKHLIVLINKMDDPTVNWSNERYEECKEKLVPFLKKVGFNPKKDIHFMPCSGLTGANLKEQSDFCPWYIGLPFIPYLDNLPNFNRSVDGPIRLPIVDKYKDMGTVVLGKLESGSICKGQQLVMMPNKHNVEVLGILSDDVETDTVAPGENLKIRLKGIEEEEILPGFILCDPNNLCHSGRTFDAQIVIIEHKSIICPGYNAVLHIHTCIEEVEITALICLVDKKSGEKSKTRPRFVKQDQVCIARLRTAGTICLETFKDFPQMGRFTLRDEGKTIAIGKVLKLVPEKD
T4 sequence (Q96SW2 whole entry): as the sequence (Q96SW2 whole entry) above
T4 sequence (Q16531 whole entry partner): as the sequence (Q16531 whole entry partner) above
Sequence of CRBN/DDB1 protein complex (Q96SW2 whole entry, species assumed): as the sequence (Q96SW2 whole entry) above
Sequence of CRBN/DDB1 protein complex (Q16531 whole entry partner, species assumed): as the sequence (Q16531 whole entry partner) above
T1 sequence (Q9UJQ4 410-432 limits assumed): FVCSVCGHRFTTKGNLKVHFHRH
T1 sequence (Q96SW2 whole entry): as the sequence (Q96SW2 whole entry) above
T1 sequence (Q16531 whole entry partner): as the sequence (Q16531 whole entry partner) above

Consider `Cc1ccc(NC(=O)NCc2ccc3c(c2)CN(C2CCC(=O)NC2=O)C3=O)cc1Cl` (stereo not drawn) [CC-885, reference compound], for which the “Normalized ternary complex response, SALL4 ZF2” value in experiment [1] is “A (A≥50%)”. In addition, the “Normalized ternary complex response, IKZF1 ZF2” value in experiment [2] is “A (A≥50%)”. Also, in experiment [3], the “Normalized ternary complex response, IKZF2 ZF2” value is “A (A≥50%)”. In experiment [4], the “Normalized ternary complex response, CK1α” value was “C (10%≤C<25%)”.

Take `Cc1nc2ccc(CNC(=O)C(=O)c3ccc(C(C)(C)C)cc3)cc2cc1C1CCC(=O)NC1=O` (stereo not drawn) [Compound 1, 2-(4-(tert-butyl)phenyl)-N-((3-(2,6-dioxopiperidin-3-yl)-2-methylquinolin-6-yl)methyl)-2-oxoacetamide]: the Ki in experiment [5] is under 0.5 µM. Further, the activation at 1 µM is over 50% in experiment [6]; at least 50% in experiment [1]; 25 to 50% in experiment [2]; 10 to 25% in experiment [3]; under 10% in experiment [4]. Further, the EC50 in experiment [7] is under 0.316 µM.

`Cc1ccc(Nc2c(NCc3ccc4cc(C5CCC(=O)NC5=O)c(C)nc4c3)c(=O)c2=O)cc1Cl` (stereo not drawn) [Compound 3, 3-(7-(((2-((3-chloro-4-methylphenyl)amino)-3,4-dioxocyclobut-1-en-1-yl)amino)methyl)-2-methylquinolin-3-yl)piperidine-2,6-dione]: in experiment [5], the inhibition constant Ki is over 1 µM. The activation at 1 µM in experiment [6] was 10 to 50%; in experiment [1], under 10%; in experiment [2], under 10%; in experiment [3] it was under 10%; in experiment [4], under 10%. Further, the EC50 in experiment [7] was over 3.16 µM.

`Cc1nc2ccc(COC(=O)Nc3cc(OC(F)(F)F)ccc3F)cc2cc1C1CCC(=O)NC1=O` (stereo not drawn) [Compound 7, (3-(2,6-dioxopiperidin-3-yl)-2-methylquinolin-6-yl)methyl (2-fluoro-5-(trifluoromethoxy)phenyl)carbamate]: in experiment [5], the Ki is under 0.5 µM. Moreover, the activation at 1 µM was 10 to 50% in experiment [6]; at least 50% in experiment [1]; 25 to 50% in experiment [2]; under 10% in experiment [3]; under 10% in experiment [4]. Also, in experiment [7], the EC50 was over 3.16 µM.

For the compound `Cc1ccc(-c2nnc(NCc3ccc4cc(C5CCC(=O)NC5=O)c(C)nc4c3)o2)cc1Cl` (stereo not drawn) [Compound 13, 3-(7-(((5-(3-chloro-4-methylphenyl)-1,3,4-oxadiazol-2-yl)amino)methyl)-2-methylquinolin-3-yl)piperidine-2,6-dione], the Ki in experiment [5] was under 0.5 µM. For the same compound, the activation at 1 µM is 10 to 50% in experiment [6]; under 10% in experiment [1]; under 10% in experiment [2]; under 10% in experiment [3]; under 10% in experiment [4]. Also, the EC50 in experiment [7] is over 3.16 µM.

Turning to `Cc1nc2ccc(CNC(=O)C(=O)N3CCC(C(C)(C)C)CC3)cc2cc1C1CCC(=O)NC1=O` (stereo not drawn) [Compound 23, 2-(4-(tert-butyl)piperidin-1-yl)-N-((3-(2,6-dioxopiperidin-3-yl)-2-methylquinolin-6-yl)methyl)-2-oxoacetamide], the Ki in experiment [5] was under 0.5 µM. Further, the activation at 1 µM in experiment [6] is 10 to 50%; in experiment [1] it was 25 to 50%; in experiment [2] it was under 10%; in experiment [3] it was under 10%; in experiment [4], under 10%. Moreover, the EC50 in experiment [7] was over 3.16 µM.

In the case of `Cc1ccc(NCC(=O)NCc2ccc3nc(C)c(C4CCC(=O)NC4=O)cc3c2)cc1Cl` (stereo not drawn) [Compound 26, 2-((3-chloro-4-methylphenyl)amino)-N-((3-(2,6-dioxopiperidin-3-yl)-2-methylquinolin-6-yl)methyl)acetamide], the inhibition constant Ki in experiment [5] is 0.5 to 1 µM. In addition, the activation at 1 µM in experiment [6] is 10 to 50%; in experiment [1], 25 to 50%; in experiment [2], under 10%; in experiment [3], under 10%; in experiment [4], under 10%. In addition, the EC50 in experiment [7] was 0.316 to 3.16 µM.

Turning to `Cc1ccc(NC(=O)C(C)Oc2ccc3cc(C4CCC(=O)NC4=O)c(C)nc3c2)cc1Cl` (stereo not drawn) [Compound 34, N-(3-chloro-4-methylphenyl)-2-((3-(2,6-dioxopiperidin-3-yl)-2-methylquinolin-7-yl)oxy)propenamide], in experiment [5], the inhibition constant Ki is 0.5 to 1 µM. For the same compound, the activation at 1 µM in experiment [6], in experiment [1], in experiment [2], in experiment [3] and in experiment [4] was under 10% throughout. The EC50 in experiment [7] was over 3.16 µM.

Turning to `Cc1nc2cc(OC(C)C(=O)NC3CCCCC3)ccc2cc1C1CCC(=O)NC1=O` (stereo not drawn) [Compound 36, N-cyclohexyl-2-((3-(2,6-dioxopiperidin-3-yl)-2-methylquinolin-7-yl)oxy)propenamide], the inhibition constant (Ki) in experiment [5] is under 0.5 µM. For the same compound, the activation at 1 µM in experiment [6], in experiment [1], in experiment [2], in experiment [3] and in experiment [4] was under 10% each time. Further, the EC50 in experiment [7] was over 3.16 µM.

Broadly, the Ki is a measure of affinity in units of concentration, obtained from inhibition or displacement.

These data come from patent US20260232682A1, “GSPT1 DEGRADER COMPOUNDS” (Captor Therapeutics S.A., priority 2023, published 2026).
